Measured values from EP4603105A1, “PHARMACEUTICAL COMPOSITION CONTAINING CYCLIC COMPOUND HAVING SELECTIVE KRAS INHIBITORY EFFECT AGAINST HRAS AND NRAS” (CHUGAI SEIYAKU KABUSHIKI KAISHA, priority 2022, dated 2024).
*1 amine or outer side, *2 acyl side, *3 side chain or, on linkers, in order; H or OH if unused. Where a SMILES comes first, the peptide text is derived from it. Bridges are numbered along the chain shown (N, C = ends). [ ]: non-standard residue; d: D form. The star is where a group is joined. hPhe(3,5-F2-4-CF3) = N[C@@H](CCc1cc(F)c(C(F)(F)F)c(F)c1)C(=O)O; hPhe(3-Cl-4-CF3) = N[C@@H](CCc1ccc(C(F)(F)F)c(Cl)c1)C(=O)O; NPrPhe(4-CF3) = CCCN[C@@H](Cc1ccc(C(F)(F)F)cc1)C(=O)O; NEtPhe(4-CF3) = CCN[C@@H](Cc1ccc(C(F)(F)F)cc1)C(=O)O; NMeAbu(4,4,4-F3) = CN[C@@H](CC(F)(F)F)C(=O)O; X17 = CN([C@@H](CCCCC=[*:3])C(=O)[*:2])[*:1]; dαMeAlg = C[C@](CC=[*:3])(N[*:1])C(=O)[*:2]; NMeGly(cPent) = CN[C@H](C(=O)O)C1CCCC1; Hyp = O=C(O)[C@@H]1C[C@@H](O)CN1; NMeD = CN[C@@H](CC(=O)O)C(=O)O; NMeL = CN[C@@H](CC(C)C)C(=O)O; Morpholide = C1CN(*)CCO1; Ac5c = NC1(C(=O)O)CCCC1; Aze = O=C(O)[C@@H]1CCN1; NEtG = CCNCC(=O)O; Sar = CNCC(=O)O

Columns and labels:
HRAS wild-type protein = HRAS wild-type protein (Homo sapiens, UniProt P01112); assay: Binding to HRAS by surface plasmon resonance (SPR), KD and KD ratio to KRAS
Procedure, shortened: (§1)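 Biotinylated GDP-bound RAS was captured at about 100–300 RU. Running buffer: HBS pH 7.4, 10 mM MgCl2, 10 µM GDP, 1 mM DTT, 0.01% Tween 20, 4% DMSO.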

[1] = test system: human lung cancer strain NCI-H441; assay type: cell-based
Procedure, shortened: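 Step one: dispense the test compound in serial DMSO dilutions. Step three: add the reagent and measure […].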

[2] = target: GDP-bound NRAS wild-type protein (Homo sapiens, UniProt P01111); assay: Binding to NRAS by surface plasmon resonance (SPR), KD and KD ratio to KRAS
Procedure, shortened: as §1

[3] = ratio of the KD value with respect to HRAS wild-type protein to the KD value with respect to KRAS
[4] = ratio of the KD value with respect to GDP-bound NRAS wild-type protein to the KD value with respect to KRAS
[5] = ratio of KD for HRAS wild-type protein to KD for KRAS
[6] = ratio of KD for GDP-bound NRAS wild-type protein to KD for KRAS
[7] = ratio of KD value for HRAS wild-type protein to KD value for KRAS (SPR)
[8] = ratio of KD value for GDP-bound NRAS wild-type protein to KD value for KRAS (SPR)

Sequence of GDP-bound NRAS wild-type protein (P01111 whole entry): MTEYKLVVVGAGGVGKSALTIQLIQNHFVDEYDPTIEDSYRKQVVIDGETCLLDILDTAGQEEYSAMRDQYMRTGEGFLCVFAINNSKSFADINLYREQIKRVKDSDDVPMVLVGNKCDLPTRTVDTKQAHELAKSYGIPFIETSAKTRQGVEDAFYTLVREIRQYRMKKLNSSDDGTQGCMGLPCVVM
Sequence of HRAS wild-type protein (P01112 whole entry): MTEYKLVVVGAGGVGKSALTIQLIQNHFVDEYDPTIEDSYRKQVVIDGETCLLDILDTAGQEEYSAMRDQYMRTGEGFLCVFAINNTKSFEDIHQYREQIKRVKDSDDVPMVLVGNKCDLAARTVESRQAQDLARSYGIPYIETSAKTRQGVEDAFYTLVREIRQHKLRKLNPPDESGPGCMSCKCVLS

Row | Structure (SMILES) | IC50 [1] [nM] | HRAS /KRAS (HRAS wild-type protein; [3]) | NRAS /KRAS [2, 4] | HRAS /KRAS (HRAS wild-type protein; [5]) | NRAS /KRAS [2, 6] | HRAS /KRAS (HRAS wild-type protein; [7]) | NRAS /KRAS [2, 8]
1 | CCCN1C(=O)[C@@H]2CCN2C(=O)CN(C)C(=O)[C@H]([C@@H](C)CC)NC(=O)[C@H](CC(C)C)N(C)C(=O)C[C@@H](C(=O)N2CCOCC2)N(C)C(=O)[C@H](CC(F)(F)F)N(C)C(=O)C2(CCCC2)NC(=O)[C@@H]2CCCN2C(=O)[C@H](CCc2cc(F)c(C(F)(F)F)c(F)c2)NC(=O)CN(C)C(=O)[C@@H]1Cc1ccc(C(F)(F)F)cc1 [PP0803] ([NMeL]I[Sar][Aze][NPrPhe(4-CF3)][Sar][hPhe(3,5-F2-4-CF3)]P[Ac5c][NMeAbu(4,4,4-F3)][NMeD]-Morpholide; lactam N-11) | 52.5 |  |  | B (a compound having 3 or more and less than 10 is denoted as B) | C (A compound having a KD ratio of 0.1 or more and less than 3 is denoted as C) |  | 
2 | CCC[C@H]1C(=O)N[C@@H]([C@@H](C)CC)C(=O)N2CCC[C@H]2C(=O)N(C)[C@H]2C/C=C\CCN(C2=O)[C@@H](CC2CCC(F)(F)CC2)C(=O)N(C)CC(=O)N[C@@H](CCc2ccc(C(F)(F)F)c(OC)c2)C(=O)N2C[C@H](OCC)C[C@H]2C(=O)N(C)C2(CCC2)C(=O)N(C)[C@@H](C(CC)CC)C(=O)N(C)[C@H](C(=O)N(C)C)CC(=O)N1C [PP2353] | 68.8 | A (a compound having 10 or more and less than 20 is denoted as A) | A (a compound having 10 or more and less than 20 is denoted as A) |  |  |  | 
3 | CCCN1C(=O)CN(C)C(=O)CN(C)C(=O)[C@H]([C@@H](C)CC)NC(=O)[C@@H]2CCCCC=CC[C@@](C)(NC(=O)[C@@H]3C[C@@H](OCC)CN3C(=O)[C@H](CCc3cc(F)c(C(F)(F)F)c(F)c3)NC(=O)CN(C)C(=O)[C@@H]1Cc1ccc(C(F)(F)F)cc1)C(=O)N(C)[C@@H](C1CCCC1)C(=O)N(C)[C@H](C(=O)N1CCOCC1)CC(=O)N2C [PP0902] ([X17]I[Sar][Sar][NPrPhe(4-CF3)][Sar][hPhe(3,5-F2-4-CF3)][Hyp](Et)[dαMeAlg][NMeGly(cPent)][NMeD]-Morpholide; staple 1-9; lactam N-11) | 72.6 |  |  | B (a compound having 3 or more and less than 10 is denoted as B) | A (a compound having 10 or more and less than 20 is denoted as A) |  | 
4 | CC[C@H](C)[C@@H]1NC(=O)[C@H](C(C)C)N(C)C(=O)C[C@@H](C(=O)N(C)CC)N(C)C(=O)[C@H](C2CCCC2)N(C)C(=O)C2(CCC2)NC(=O)[C@@H]2C[C@H](C)CN2C(=O)[C@H](CCc2ccc(C(F)(F)F)c(OC)c2)NC(=O)CN(C)C(=O)[C@H](Cc2ccc(C(F)(F)F)cc2)N2CC/C=C\C[C@@H](C2=O)N(C)C(=O)CN(C)C1=O [PP2065] | 17 | B (a compound having 3 or more and less than 10 is denoted as B) | A (a compound having 10 or more and less than 20 is denoted as A) |  |  |  | 
5 | CCCN1C(=O)CN(C)C(=O)CN(CC)C(=O)[C@H]([C@@H](C)CC)NC(=O)[C@H](CC(C)C)N(C)C(=O)C[C@@H](C(=O)N2CCOCC2)NC(=O)[C@H](C2CCCC2)N(C)C(=O)C2(CCCC2)NC(=O)[C@@H]2CCCN2C(=O)[C@H](CCc2ccc(C(F)(F)F)c(Cl)c2)NC(=O)CN(C)C(=O)[C@@H]1Cc1ccc(C(F)(F)F)cc1 [PP0331] ([NMeL]I[NEtG][Sar][NPrPhe(4-CF3)][Sar][hPhe(3-Cl-4-CF3)]P[Ac5c][NMeGly(cPent)]D-Morpholide; lactam N-11) | 84.7 |  |  | B (a compound having 3 or more and less than 10 is denoted as B) | B (a compound having 3 or more and less than 10 is denoted as B) |  | 

Now those with a lower IC50 [1], led by results:

Row | IC50 [1] [nM] | Structure (SMILES) | HRAS /KRAS (HRAS wild-type protein; [3]) | NRAS /KRAS [2, 4] | HRAS /KRAS (HRAS wild-type protein; [5]) | NRAS /KRAS [2, 6] | HRAS /KRAS (HRAS wild-type protein; [7]) | NRAS /KRAS [2, 8]
6 | 5.4 | C=CCN1CC(=O)N(C)[C@H]2C/C=C\CCN(C2=O)[C@@H](Cc2ccc(C)cc2)C(=O)N(C)CC(=O)N[C@@H](CCc2cc(F)c(C(F)(F)F)c(F)c2)C(=O)N2C[C@H](OCC)C[C@H]2C(=O)NC2(CC(C)(C)C2)C(=O)N(C)[C@@H](C2CCCC2)C(=O)N(C)[C@H](C(=O)N(C)C)CC(=O)N(C)[C@@H](CCC)C(=O)N[C@@H]([C@@H](C)CC)C1=O [PP2094] | A (a compound having 10 or more and less than 20 is denoted as A) | A (a compound having 10 or more and less than 20 is denoted as A) |  |  |  | 
7 | 4.5 | CC[C@H](C)[C@@H]1NC(=O)[C@H](CC(C)C)N(C)C(=O)C[C@@H](C(=O)N2CCOCC2)N(C)C(=O)[C@H](C2CCCC2)N(C)C(=O)C2(CCCC2)NC(=O)[C@@H]2CCCN2C(=O)[C@H](CCc2ccc(C(F)(F)F)c(Cl)c2)NC(=O)CN(C)C(=O)[C@H](Cc2ccc(C(F)(F)F)cc2)N(CC)C(=O)CN(C)C(=O)CN(C)C1=O [PP0023] ([NMeL]I[Sar][Sar][NEtPhe(4-CF3)][Sar][hPhe(3-Cl-4-CF3)]P[Ac5c][NMeGly(cPent)][NMeD]-Morpholide; lactam N-11) |  |  | C (A compound having a KD ratio of 0.1 or more and less than 3 is denoted as C) | B (a compound having 3 or more and less than 10 is denoted as B) |  | 
8 | 11.6 | CC[C@H](C)[C@@H]1NC(=O)[C@H](CC(C)C)N(C)C(=O)C[C@@H](C(=O)N(C)C)N(C)C(=O)[C@H](C2CCCC2)N(C)C(=O)C2(CCC2)NC(=O)[C@@H]2CC(F)(F)CN2C(=O)[C@H](CCc2ccc(C(F)(F)F)c(Cl)c2)NC(=O)CN(C)C(=O)[C@H](Cc2ccc(F)cc2)N2CCCCC[C@@H](C2=O)N(C)C(=O)CN(C)C1=O [PP0973] |  |  | B (a compound having 3 or more and less than 10 is denoted as B) | B (a compound having 3 or more and less than 10 is denoted as B) |  | 
9 | 2.6 | CCO[C@@H]1C[C@H]2C(=O)NC3(CC(C)(C)C3)C(=O)N(C)[C@@H](C3CCCC3)C(=O)N(C)[C@H](C(=O)N(C)C)CC(=O)N(C)[C@@H](CC3CC3)C(=O)N[C@@H]([C@@H](C)CC)C(=O)N(C)CC(=O)N(C)[C@H]3C/C=C\CCN(C3=O)[C@@H](Cc3ccc(C(F)(F)F)cc3)C(=O)N(C)CC(=O)N[C@@H](CCc3ccc(C(F)(F)F)c(OC)c3)C(=O)N2C1 [PP1563] |  |  |  |  | A (a compound having 10 or more and less than 20 is denoted as A) | A (a compound having 10 or more and less than 20 is denoted as A)
10 | 6.9 | CCOC[C@H]1C(=O)N[C@@H]([C@@H](C)CC)C(=O)N(C)CC(=O)N(C)[C@H]2C/C=C\CCN(C2=O)[C@@H](Cc2ccc(C(F)(F)F)cc2)C(=O)N(C)CC(=O)N[C@@H](CCc2ccc(C(F)(F)F)c(OC)c2)C(=O)N2C[C@H](OCC)C[C@H]2C(=O)NC2(CC(C)(C)C2)C(=O)N(C)[C@@H](C2CCCC2)C(=O)N(C)[C@H](C(=O)N(C)CC)CC(=O)N1C [PP2014] | A (a compound having 10 or more and less than 20 is denoted as A) | A (a compound having 10 or more and less than 20 is denoted as A) |  |  |  | 
11 | 5.5 | CC[C@H](C)[C@@H]1NC(=O)[C@H](CC2CC2)N(C)C(=O)C[C@@H](C(=O)N(C)C)N(C)C(=O)[C@H](C2CCCC2)N(C)C(=O)C2(CCC2)NC(=O)[C@@H]2C[C@H](C)CN2C(=O)[C@H](CCc2cc(F)c(C(F)(F)F)c(F)c2)NC(=O)CN(C)C(=O)[C@H](Cc2ccc(C(F)(F)F)cc2)N2CC/C=C\C[C@@H](C2=O)N(C)C(=O)CN(C)C1=O [PP1499] |  |  |  |  | B (a compound having 3 or more and less than 10 is denoted as B) | A (a compound having 10 or more and less than 20 is denoted as A)
